US20210145722A1, “ACTIVE SUBSTANCE COMBINATIONS OF N-(4-AMINO-2-METHYLQUINOLIN-6-YL)-2-((4-ETHYLPHENOXY)METHYL)BENZAMIDE AND ONE OR MORE COSMETICALLY OR DERMATOLOGICALLY ACCEPTABLE FRAGRANCES” (BEIERSDORF AG, priority 2017, published 2021)
Read-outs that look alike come from different tables or passages of the source.

Key:
subcutaneous adipocytes = assay: Lipid assay (AdipoRed staining of differentiated adipocytes); type: cell-based; conditions: combination with 10 ng/ml N-(4-amino-2-methylquinolin-6-yl)-2-((4-ethylphenoxy)methyl)benzamide; one week treatment
Description: The lipid assay is performed on subcutaneous adipocytes. Cell culture dishes are inoculated with preadipocytes, which undergo differentiation into adipocytes. This is followed by treatment with the active substance for one week, during which the cells synthesize lipids and store them in vesicles. The total amount of lipid as a function of active substance effects is determined at the end of the culture period. This is done by staining the cell monolayer with the lipophilic fluorescent dye AdipoRed, followed by quantification by fluorescence spectroscopy.

[1] = LDH (lactate dehydrogenase) cytotoxicity assay, fibroblasts
Description: The third assay performed is the LDH (lactate dehydrogenase) cytotoxicity assay. In this assay, the metabolic enzyme LDH is detected in the medium supernatant of the cell monolayer by adding a substrate for the enzyme to the cell culture supernatant. Reaction of the latter produces a color change, which is determined photometrically. The magnitude of the color change correlates here with the amount of LDH in the cell culture supernatant.
For all assays, the active substances were present as 1000× stocks dissolved to 10 mM in DMSO and were diluted 1:1000 in the appropriate cell culture medium for use.

dermal fibroblasts = assay: BrdU viability assay (cell division rate); type: cell-based; conditions: combination with 10 ng/ml N-(4-amino-2-methylquinolin-6-yl)-2-((4-ethylphenoxy)methyl)benzamide; 24 h treatment
Description: For the viability assay, dermal fibroblasts were treated with active substances/active substance combinations in the cell culture medium for 24 h and during this time were provided with BrdU (5-bromodeoxyuridine). The cells take up this synthetic nucleic acid, which is detectable by fluorescence detection, and incorporate it into newly synthesized genetic material during cell division. The fluorescence of the cell monolayer is then measured after 24 h, the intensity of which is ultimately a measure of the cell division rate during treatment with the active substance. This allows conclusions to be drawn about the effect of the individual active substances on cell viability.

[2] = combination with 10 ng/ml N-(4-amino-2-methylquinolin-6-yl)-2-((4-ethylphenoxy)methyl)benzamide, table does not say whether fibroblasts or adipocytes

## C=CC(C)(O)CCC=C(C)CC (mixture of isomers) [Ethyl linalool]
Subcutaneous adipocytes
  Assay in which the combination showed better activity than the corresponding active substance alone: Lipid: Lipid

## OCc1ccccc1 [Benzyl alcohol DD, Benzyl alcohol]
Subcutaneous adipocytes
  Assay in which the combination showed better activity than the corresponding active substance alone: Lipid: Lipid

## O=C(C=Cc1ccccc1)OCc1ccccc1 [Benzyl cinnamate]
Subcutaneous adipocytes
  Assay in which the combination showed better activity than the corresponding active substance alone: Lipid: Lipid

## O=C(OCc1ccccc1)c1ccccc1O [Benzyl salicylate]
[1]
  Assay in which the combination showed better activity than the corresponding active substance alone: LDH: LDH

## CC(C)=CCCC(C)=CC=O [Citral 95, Citral]
Dermal fibroblasts
  Assay in which the combination showed better activity than the corresponding active substance alone: BrdU: BrdU

## CC(C)=CCCC(C)CCO (centres unmarked) [Citronellol 950, Citronellol]
[1]; [2]
  Assay in which the combination showed better activity than the corresponding active substance alone: LDH: LDH
Subcutaneous adipocytes
  Assay in which the combination showed better activity than the corresponding active substance alone: Lipid: Lipid

## C=CC(C)CCCC(C)(C)O (centres unmarked) [Dihydromyrcenol]
Subcutaneous adipocytes
  Assay in which the combination showed better activity than the corresponding active substance alone: Lipid: Lipid

## CCOc1cc(C=O)ccc1O [Ethyl vanillin]
Subcutaneous adipocytes
  Assay in which the combination showed better activity than the corresponding active substance alone: Lipid: Lipid

## C=CCc1ccc(O)c(OC)c1 [Eugenol]
Dermal fibroblasts
  Assay in which the combination showed better activity than the corresponding active substance alone: BrdU: BrdU

## CC(C)=CCCC(C)=CCCC(C)=CCO [Farnesol]
[1]; [2]
  Assay in which the combination showed better activity than the corresponding active substance alone: LDH: LDH

## CCCCCC1C(=O)CCC1CC(=O)OC (centres unmarked) [Hedion]
[1]; [2]
  Assay in which the combination showed better activity than the corresponding active substance alone: LDH: LDH
Dermal fibroblasts
  Assay in which the combination showed better activity than the corresponding active substance alone: BrdU: BrdU
Subcutaneous adipocytes
  Assay in which the combination showed better activity than the corresponding active substance alone: Lipid: Lipid

## CC/C=C\CCO [Hexenol cis-3]
[1]; [2]
  Assay in which the combination showed better activity than the corresponding active substance alone: LDH: LDH
Dermal fibroblasts
  Assay in which the combination showed better activity than the corresponding active substance alone: BrdU: BrdU
Subcutaneous adipocytes
  Assay in which the combination showed better activity than the corresponding active substance alone: Lipid: Lipid

## CCCCCCOC(=O)c1ccccc1O [Hexyl salicylate]
[1]; [2]
  Assay in which the combination showed better activity than the corresponding active substance alone: LDH: LDH
Subcutaneous adipocytes
  Assay in which the combination showed better activity than the corresponding active substance alone: Lipid: Lipid

## CC(CC=O)CCCC(C)(C)O (centres unmarked) [Hydroxycitronellal]
[1]; [2]
  Assay in which the combination showed better activity than the corresponding active substance alone: LDH: LDH

## CC(=O)C1(C)CC2=C(CCCC2(C)C)CC1C (centres unmarked) [Iso E Super]
[1]; [2]
  Assay in which the combination showed better activity than the corresponding active substance alone: LDH: LDH
Subcutaneous adipocytes
  Assay in which the combination showed better activity than the corresponding active substance alone: Lipid: Lipid

## CC(C=O)Cc1ccc(C(C)(C)C)cc1 (centres unmarked) [Lilial]
[1]; [2]
  Assay in which the combination showed better activity than the corresponding active substance alone: LDH: LDH

## C=C(C)[C@H]1CC=C(C)CC1 [Limonene D pure, Limonene D]
Subcutaneous adipocytes
  Assay in which the combination showed better activity than the corresponding active substance alone: Lipid: Lipid

## C=CC(C)(O)CCC=C(C)C (centres unmarked) [Linalool aroma, Linalool]
[1]; [2]
  Assay in which the combination showed better activity than the corresponding active substance alone: LDH: LDH
Subcutaneous adipocytes
  Assay in which the combination showed better activity than the corresponding active substance alone: Lipid: Lipid

## C=CC(C)(CCC=C(C)C)OC(C)=O (centres unmarked) [Linalyl acetate]
[1]; [2]
  Assay in which the combination showed better activity than the corresponding active substance alone: LDH: LDH

## O=C1CCCCCCCCCCCCCCO1 [Macrolide supra]
Subcutaneous adipocytes
  Assay in which the combination showed better activity than the corresponding active substance alone: Lipid: Lipid

## CCCCCC#CC(=O)OC [Methyl heptine carbonate]
[1]; [2]
  Assay in which the combination showed better activity than the corresponding active substance alone: LDH: LDH
Subcutaneous adipocytes
  Assay in which the combination showed better activity than the corresponding active substance alone: Lipid: Lipid

## OCCc1ccccc1 [Phenylethyl alcohol]
Dermal fibroblasts
  Assay in which the combination showed better activity than the corresponding active substance alone: BrdU: BrdU

## Cc1ccc(C(C)C)c(O)c1 [Thymol cryst., Thymol]
[1]; [2]
  Assay in which the combination showed better activity than the corresponding active substance alone: LDH: LDH
